Measurements published in patent US6242478A, “Five member ring sulfenate esters and thiosulfinate esters” (Wake Forest University, priority 1999, dated 2001).
Where two headings read alike, the source gives them in different places.

How the values were obtained:
HIV-1RF = conditions: cited from earlier work; for activity against HIV-1 in XTT-based cytoprotection assay: in words
NCp7 protein = conditions: cited from earlier work; for ejection of zinc from NCp7: in words; for TSQ NCp7 Assay: unit not given
NCp7 [1] = target: T1, NCp7 (Human immunodeficiency virus type 1 group M subtype B, UniProt P04591); conditions: DFT calculation (Maynard et al., 1998); cited from earlier work
T1 construct: HIV-1 nucleocapsid protein (NCp7)

CEM-SS cells = conditions: cited from earlier work
[2] = tested on: fresh human monocyte/macrophage cultures; conditions: toxicity; cited from earlier work
HIV-1ADA = conditions: fresh human monocyte/macrophage cultures, cited from earlier work; for EC50: HIV-1ADA; for activity against replication of monocytotropic HIV-1ADA: in words
NCp7 [3] = target: T2, NCp7 (Human immunodeficiency virus type 1 group M subtype B, UniProt P12493); conditions: 50 μM, reference compounds; cited from earlier work
T2 construct: HIV-1 nucleocapsid protein (NCp7)

GATA-1 = conditions: in words; cited from earlier work
HeLa nuclear extract = conditions: CMV promoter, duck HBV sequence; cited from earlier work
Sp1 = conditions: in words; cited from earlier work
[4] = tested on: enzymatic activities of the viral replication cycle; conditions: in words; cited from earlier work
[5] = tested on: poly (ADP-ribose) polymerase (PARP); conditions: in words; cited from earlier work
GST [6] = conditions: rats; cited from earlier work
GST [7] = conditions: mice; cited from earlier work
[8] = tested on: glutathione-S-transferase (GST); conditions: cited from earlier work
phase II enzymes = conditions: in words; cited from earlier work
Ferritin H mRNA = Ferritin H mRNA induction, Northern blot; format: cell-based, mouse; conditions: 80 μM, 24 hours
Experimental: (§1) BNL.CL2 cells were treated with Oltipraz, compound 121 described above, and compound 123 described above. All compounds were applied to the cells at 100 micromolar concentration for 24 hours.
(§2) Cells were exposed to compounds at a final concentration of 80 μM for 24 hours. RNA was isolated and analyzed by Northern blotting for the expression of the indicated genes. Control cells were incubated with vehicle alone (0.4% DMSO).
(§3) Northern blot: Treatment of BNL.CL2 cells with 100 μM Oltipraz, ALH-556, and ALH-562, ALH-561, ED 13.4, ED 14.6, DCF 070, ALH-490
(§4) BNL.CL2 cells (normal mouse embryonic liver cell line) were plated at ~3×10^5 cells/ml, grown for 16-24 hours, and treated with 0 μM and 100 μM Oltipraz, ALH-556 (121), and ALH-562 (123) for 24 hours. All three compounds were dissolved in DMSO and the final DMSO concentration present in all treatment conditions was 0.2%. BNL.CL2 cells were harvested by trypsinization and total RNA was isolated using the Trizol reagent (Gibco BRL) according to the manufacturer's procedures. 15 μg of RNA were run on a 1.1% agarose/6.6% formaldehyde gel and transferred overnight onto nitrocellulose membranes by capillary transfer using 20×SSC as transfer buffer. Subsequent to RNA transfer, the nitrocellulose membrane was baked at 80° C. for 2 hours. RNA was analyzed using a radiolabeled mouse ferritin H and human GST-α c-DNA. A human β-actin probe was used as an internal standard. The c-DNA probes were labeled with [α^32 P]dCTP by a random prime labeling. Hybridization of the c-DNA probes to the nitrocellulose membrane was performed at 68° C. for 60 minutes using the Quick-Hyb solution (Stratagene). Membranes were subjected to phosphoimager analysis after hybridization.

[9] = tested on: GST alpha mRNA in BNL.CL2 cells; experiment: GST alpha mRNA induction, Northern blot; format: cell-based, mouse; conditions: for GST α induction (mRNA): 80 μM, Northern blot; for GST α induction (mRNA) / activation at 100 µM: 24 hours; for activation at 100 µM: Mus musculus, BNL CL.2, BNL.CL2 cells, 100 micromolar, read-out: increase in GST alpha mRNA levels
Experimental: as §1, §2, §3, §4

[10] = Dimitrov et al., 1992; cited from earlier work
[11] = tested on: DT-diaphorase (NQO1) mRNA; experiment: NQO1 mRNA induction, Northern blot; format: cell-based, mouse; conditions: 80 μM, 24 hours
Experimental: as §1, §2, §3, §4

HIV-1 = conditions: Prochaska et al., 1993; cited from earlier work
[12] = tested on: GST alpha mRNA in BNL.CL2 cells; experiment: GST alpha mRNA induction, Northern blot; format: cell-based, mouse; conditions: 48 and 72h post treatment, in words
[13] = CEM-SS cells, HIV-1RF, read-out: XTT assay EC50
[14] = toxicity, CEM-SS cells, read-out: XTT assay IC50

O=S1(=O)C[C@@H](O)[C@H](O)CS1 (relative stereo) [compound 9]
EC50 (HIV-1RF; [13]): 13 µM | activity against HIV-1 in XTT-based cytoprotection assay (HIV-1RF): active | ejection of zinc from NCp7 (NCp7 protein): promoted ejection of zinc | TSQ NCp7 Assay (NCp7 protein): 20 | ratio of electronegativity to hardness (.chi.^2 /.eta.) (NCp7 [1]): 0.2260 | IC50 (CEM-SS cells; [14]): 135 µM | IC50 [2]: > 100 µM | EC50 (HIV-1ADA): 9.1 µM | activity against replication of monocytotropic HIV-1ADA (HIV-1ADA): active

CC(=O)OCC1(COC(C)=O)CSS(=O)(=O)C1 [compound 7]
EC50 (HIV-1RF; [13]): 9.8 µM | activity against HIV-1 in XTT-based cytoprotection assay (HIV-1RF): active | ejection of zinc from NCp7 (NCp7 protein): promoted ejection of zinc | TSQ NCp7 Assay (NCp7 protein): 18 | IC50 (CEM-SS cells; [14]): 30 µM | NCp7 Trp37 Assay, % Decrease RFU/30 min, without GSH (NCp7 [3]): 18 % Decrease RFU/30 min | IC50 [2]: > 100 µM | EC50 (HIV-1ADA): 21 µM | activity against replication of monocytotropic HIV-1ADA (HIV-1ADA): active

O=S1(=O)C[C@H](O)[C@H](O)CS1 (relative stereo) [compound 8]
EC50 (HIV-1RF; [13]): 6.6 µM | activity against HIV-1 in XTT-based cytoprotection assay (HIV-1RF): active | EC50 (HIV-1RF; two fold excess of glutathione (GSH), read-out: XTT assay EC50 with GSH): 64.2 µM | specific binding of GATA-1 to DNA target (GATA-1): does not affect poly (ADP-ribose) polymerase (PARP) activity or alter specific binding | ejection of zinc from NCp7 (NCp7 protein): promoted ejection of zinc | ejection of zinc from NCp7 (NCp7 protein; listed as NSC 624151 (8)): found to promote zinc ejection from the NCp7 protein | TSQ NCp7 Assay (NCp7 protein): 17 | IC50 (CEM-SS cells; [14]): 184 µM | IC50 (CEM-SS cells; two fold excess of glutathione (GSH), read-out: XTT assay IC50 with GSH): > 200 µM | NCp7 Trp37 Assay, % Decrease RFU/30 min, without GSH (NCp7 [3]): 17 % Decrease RFU/30 min | in vitro transcription (HeLa nuclear extract): did not significantly alter | specific binding of Sp1 to DNA target (Sp1): does not affect poly (ADP-ribose) polymerase (PARP) activity or alter specific binding | effect on enzymatic activities of the viral replication cycle [4]: no other observable effect | IC50 [2]: > 100 µM | EC50 (HIV-1ADA): 8 µM | activity against replication of monocytotropic HIV-1ADA (HIV-1ADA): active | effect on PARP activity [5]: does not affect

C=CCS[S+]([O-])CC=C (stereo not drawn) [allicin]
elevation of GST levels (GST [6]): elevate levels of GST | elevation of GST levels (GST [7]): elevate levels of GST

N[C@@H](CCC(=O)N[C@@H](CS)C(=O)NCC(=O)O)C(=O)O [glutathione]
pKa of the thiol ([8]; bound to GST): ~ 6.5 | pKa of the thiol ([8]; without enzyme binding): 9.0

Cc1c(-c2cnccn2)ssc1=S [Oltipraz]
induction of phase I / phase II enzymes (phase II enzymes): monofunctional inducers | Ferritin H induction (mRNA) (Ferritin H mRNA): + | GST α induction (mRNA) [9]: + | activation at 100 µM [9]: 340% | toxicities [10]: photosensitivity/heat intolerance, GI effects, and neurologic toxicities | elevation of GST levels (GST [6]): elevate levels of GST | NQO1 induction (mRNA) [11]: + | prevention of HIV-1 replication (HIV-1): prevent HIV-1 replication | elevation of GST levels (GST [7]): elevate levels of GST

CC1=C(C2=CCCCC2)S(=O)OC1 (stereo not drawn) [compound 123, 4-methyl-5-cyclohexenyl-1,2-oxathiol-4-en-1-yl oxide]
Ferritin H induction (mRNA) (Ferritin H mRNA): + | GST α induction (mRNA) [9]: + | activation at 100 µM [9]: 430% | inducing activity (GST, NQO1 and Ferritin H) ([9]; in words): high levels of inducing activity | time course of GST levels [12]: slight additional increases in GST levels | NQO1 induction (mRNA) [11]: +
